± gives the expanded uncertainty stated by the source.
Experiment: xn = mol fraction of the nth substance listed
Conditions: 101 kPa, Liquid; for viscosity: Anton Paar Stabinger viscometer

COc1ccccc1 [anisole] + Cc1ccccc1
Conditions	mass density [kg/m3]	speed of sound [m/s]	viscosity [mPa·s]
288.15 K, x1 = 0.1152	886.478 ± 0.31	1360.7 ± 5.5	0.676 ± 0.014
288.15 K, x1 = 0.2132	899.203 ± 0.3	1369.9 ± 5.5	0.725 ± 0.015
288.15 K, x1 = 0.3098	911.684 ± 0.28	1379.1 ± 5.5	0.77 ± 0.016
288.15 K, x1 = 0.4182	925.577 ± 0.27	1389.6 ± 5.6	0.832 ± 0.017
288.15 K, x1 = 0.5267	939.392 ± 0.26	1400.4 ± 5.6	0.891 ± 0.018
288.15 K, x1 = 0.6209	951.306 ± 0.25	1410 ± 5.7	0.94 ± 0.019
288.15 K, x1 = 0.7382	966.034 ± 0.24	1421.9 ± 5.7	1.014 ± 0.021
288.15 K, x1 = 0.8645	981.766 ± 0.23	1434.9 ± 5.7	1.094 ± 0.022
288.15 K, x1 = 0.927	989.474 ± 0.23	1441.5 ± 5.8	1.138 ± 0.023
288.15 K, x1 = 1	998.441 ± 0.23	1449.1 ± 5.8	1.188 ± 0.024
293.15 K, x1 = 0.1152	881.927 ± 0.32	1339.1 ± 5.4	0.628 ± 0.013
293.15 K, x1 = 0.2132	894.629 ± 0.31	1347.9 ± 5.4	0.671 ± 0.014
293.15 K, x1 = 0.3098	907.078 ± 0.29	1357.9 ± 5.5	0.71 ± 0.014
293.15 K, x1 = 0.4182	920.94 ± 0.28	1367.2 ± 5.5	0.765 ± 0.016
293.15 K, x1 = 0.5267	934.732 ± 0.27	1377.6 ± 5.5	0.818 ± 0.017
293.15 K, x1 = 0.6209	946.626 ± 0.26	1387.6 ± 5.6	0.861 ± 0.018
293.15 K, x1 = 0.7382	961.327 ± 0.25	1398.7 ± 5.6	0.927 ± 0.019
293.15 K, x1 = 0.8645	977.029 ± 0.24	1412.5 ± 5.7	0.999 ± 0.02
293.15 K, x1 = 0.927	984.734 ± 0.23	1418.9 ± 5.7	1.039 ± 0.021
293.15 K, x1 = 1	993.653 ± 0.23	1428.5 ± 5.7	1.084 ± 0.022
298.15 K, x1 = 0.1152	877.272 ± 0.33	1316.5 ± 5.3	0.594 ± 0.012
298.15 K, x1 = 0.2132	889.988 ± 0.31	1325.8 ± 5.4	0.634 ± 0.013
298.15 K, x1 = 0.3098	902.448 ± 0.3	1335 ± 5.4	0.67 ± 0.014
298.15 K, x1 = 0.4182	–	1345.3 ± 5.4	0.721 ± 0.015
298.15 K, x1 = 0.5267	930.133 ± 0.27	1356.5 ± 5.5	0.769 ± 0.016
298.15 K, x1 = 0.6209	942.044 ± 0.26	1366.3 ± 5.5	0.809 ± 0.016
298.15 K, x1 = 0.7382	956.777 ± 0.25	1378.8 ± 5.6	0.871 ± 0.018
298.15 K, x1 = 0.8645	972.508 ± 0.24	1392.7 ± 5.6	0.94 ± 0.019
298.15 K, x1 = 0.927	980.221 ± 0.24	1399.6 ± 5.6	0.977 ± 0.02
298.15 K, x1 = 1	989.15 ± 0.24	1408 ± 5.7	1.017 ± 0.021
303.15 K, x1 = 0.1152	872.541 ± 0.34	1295.1 ± 5.3	0.557 ± 0.011
303.15 K, x1 = 0.2132	885.247 ± 0.32	1304.8 ± 5.3	0.592 ± 0.012
303.15 K, x1 = 0.3098	897.698 ± 0.31	1314.4 ± 5.3	0.623 ± 0.013
303.15 K, x1 = 0.4182	911.571 ± 0.32	1325.3 ± 5.4	0.667 ± 0.014
303.15 K, x1 = 0.5267	925.369 ± 0.28	1336.5 ± 5.4	0.709 ± 0.014
303.15 K, x1 = 0.6209	937.281 ± 0.27	1346.4 ± 5.5	0.745 ± 0.015
303.15 K, x1 = 0.7382	952.012 ± 0.26	1358.8 ± 5.5	0.802 ± 0.016
303.15 K, x1 = 0.8645	967.753 ± 0.25	1372.5 ± 5.5	0.862 ± 0.018
303.15 K, x1 = 0.927	975.465 ± 0.25	1379.4 ± 5.6	0.895 ± 0.018
303.15 K, x1 = 1	984.374 ± 0.24	1387.7 ± 5.6	0.931 ± 0.019
